The record followed here is patent publication US20070093416A1, “Human beta-defensin secretion promoter” (priority 2003, published 2007).

This assay has as its system β-defensin-2. The assay can be described thus: β-Defensin Secretion Promotion Confirmatory Test-3 (Concentration Dependency). To be noted: 3 healthy adults. The assay is classed as in vivo, human. As to the method:
To evaluate β-defensin secretion promotion effects and concentration dependency of an organic acid, the following tests were conducted using 3 healthy adults as subjects. Saliva secreted for 3 minutes from rested subjects was collected by a spitting method (hereunder, this is referred to as the control). Thereafter, 1 ml of 0.01 wt % malic acid (amount of malic acid ingested: 0.1 mg) was placed in the oral cavity, held for one minute, and then collected together with the secreted saliva. The concentration of β-defensin-2 in the saliva was measured by ELISA, and the amount of β-defensin-2 secreted over one minute using 0.1 mg of malic acid was calculated based on the formula below. Note that the saliva amount (ml) in the formula below was calculated based on the weight of the collected saliva (g) assuming 1 g of saliva=1 ml of saliva. The same test was conducted, respectively, using 0.05, 0.1, 0.2, 0.5, or 1 wt % malic acid aqueous solution (amounts of ingested: 0.5, 1, 2, 5, and 10 mg). [table]

The structures appear in SMILES notation.

Turning to `O=C(O)CC(O)C(=O)O` (centres unmarked) [malic acid], under “1 ml of 0.01-1 wt % malic acid aqueous solution (0.1-10 mg) held in oral cavity for one minute, FIG. 3”, the “amount of β-defensin-2 secreted in saliva” value was “increases depending on the concentration”. Also, the “human β-defensin-2 secretion induction effect” value (concentration of 0.01% (amount ingested: 0.1 mg), 1 ml held in oral cavity for one minute) is “has a human β-defensin-2 secretion induction effect”.
